The assay concerns the target wild-type human cardiac sodium channel, hNav1.5 (late sodium current) in HEK293 cells (Homo sapiens, UniProt Q14524). Description: Late INa screening assay (automated whole-cell patch clamp, PatchXpress). It is filed as cell-based. As to conditions: late INa generated with 10 μM Tefluthrin (or 50 nM ATX II), HEK293 hNav1.5; for inhibition at 1 µM: HEK293, compound at 1 μM, read-out: Late INa 1 μM (percent block of late INa). In outline:
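Percent block was derived from mean current 225–250 ms into a 250 ms depolarisation to −20 mV (holding −120 mV, every 10 s), normalised to the current left in Na-free solution. Whole-cell recordings came from HEK293 cells stably expressing α-subunit-only hNav1.5, at 24–27 °C. Late current was enhanced with 10 μM tefluthrin or 50 nM ATX II, then compound (typically 10 μM) was added three times over 7–8 min.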
A general note: Patch clamp records ionic current or voltage across a cell membrane.

The structures appear in SMILES notation.

Chain of wild-type human cardiac sodium channel, hNav1.5 (late sodium current) in HEK293 cells (Q14524 whole entry): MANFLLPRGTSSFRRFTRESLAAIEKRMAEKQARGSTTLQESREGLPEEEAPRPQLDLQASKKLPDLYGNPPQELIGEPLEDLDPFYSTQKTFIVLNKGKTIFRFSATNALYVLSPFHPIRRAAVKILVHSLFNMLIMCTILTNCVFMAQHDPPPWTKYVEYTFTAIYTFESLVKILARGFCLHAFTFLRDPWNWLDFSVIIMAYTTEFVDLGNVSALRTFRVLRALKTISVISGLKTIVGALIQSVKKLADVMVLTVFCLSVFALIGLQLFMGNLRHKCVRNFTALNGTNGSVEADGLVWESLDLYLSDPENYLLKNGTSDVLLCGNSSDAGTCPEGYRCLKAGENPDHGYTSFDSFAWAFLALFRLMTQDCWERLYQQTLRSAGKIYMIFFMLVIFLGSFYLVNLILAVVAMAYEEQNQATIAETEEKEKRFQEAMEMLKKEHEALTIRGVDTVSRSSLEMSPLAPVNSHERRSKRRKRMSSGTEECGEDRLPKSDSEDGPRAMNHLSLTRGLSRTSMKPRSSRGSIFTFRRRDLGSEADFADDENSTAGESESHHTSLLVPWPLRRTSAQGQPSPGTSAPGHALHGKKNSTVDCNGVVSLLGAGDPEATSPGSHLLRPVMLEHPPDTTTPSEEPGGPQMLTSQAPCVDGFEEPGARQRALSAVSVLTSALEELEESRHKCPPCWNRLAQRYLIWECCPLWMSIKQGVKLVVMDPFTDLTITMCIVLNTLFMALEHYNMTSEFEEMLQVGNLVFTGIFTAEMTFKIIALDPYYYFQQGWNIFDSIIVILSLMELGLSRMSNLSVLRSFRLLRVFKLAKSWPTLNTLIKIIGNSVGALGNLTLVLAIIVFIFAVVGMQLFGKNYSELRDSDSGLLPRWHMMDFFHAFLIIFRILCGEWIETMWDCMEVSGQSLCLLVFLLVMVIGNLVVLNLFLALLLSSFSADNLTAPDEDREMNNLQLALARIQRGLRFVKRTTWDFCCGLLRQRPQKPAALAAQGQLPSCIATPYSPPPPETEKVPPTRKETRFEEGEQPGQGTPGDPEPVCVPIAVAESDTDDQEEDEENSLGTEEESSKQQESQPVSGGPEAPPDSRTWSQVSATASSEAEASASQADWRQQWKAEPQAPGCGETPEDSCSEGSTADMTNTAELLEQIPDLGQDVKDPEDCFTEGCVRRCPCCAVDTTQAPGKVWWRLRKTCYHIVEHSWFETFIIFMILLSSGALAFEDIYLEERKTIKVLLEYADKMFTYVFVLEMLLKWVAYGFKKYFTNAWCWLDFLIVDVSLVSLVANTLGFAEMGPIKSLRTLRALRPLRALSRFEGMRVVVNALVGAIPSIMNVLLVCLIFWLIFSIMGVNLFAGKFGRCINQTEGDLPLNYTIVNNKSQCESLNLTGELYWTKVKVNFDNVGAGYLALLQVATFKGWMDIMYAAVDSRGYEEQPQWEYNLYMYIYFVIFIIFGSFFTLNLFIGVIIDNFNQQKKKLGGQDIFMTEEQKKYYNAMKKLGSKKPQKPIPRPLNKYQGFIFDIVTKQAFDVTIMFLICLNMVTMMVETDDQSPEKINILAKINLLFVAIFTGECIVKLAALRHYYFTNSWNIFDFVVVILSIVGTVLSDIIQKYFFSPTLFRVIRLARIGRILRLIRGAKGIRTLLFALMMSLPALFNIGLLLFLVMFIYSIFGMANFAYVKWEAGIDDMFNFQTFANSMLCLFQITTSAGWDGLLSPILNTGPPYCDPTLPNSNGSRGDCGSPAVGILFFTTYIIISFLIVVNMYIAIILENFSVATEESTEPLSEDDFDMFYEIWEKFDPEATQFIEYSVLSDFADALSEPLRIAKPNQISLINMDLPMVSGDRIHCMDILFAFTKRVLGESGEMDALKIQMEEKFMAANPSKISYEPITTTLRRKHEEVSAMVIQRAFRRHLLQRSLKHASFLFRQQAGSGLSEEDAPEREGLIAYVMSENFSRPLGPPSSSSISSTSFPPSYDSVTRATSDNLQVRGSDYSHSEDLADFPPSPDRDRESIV

In the case of `Cc1noc(Cn2nc3ccc(-c4ccc(C(=O)c5ccccc5)cc4)cn3c2=O)n1` [compound 131, 6-(4-benzoylphenyl)-2-((3-methyl-1,2,4-oxadiazol-5-yl)methyl)-[1,2,4]triazolo[4,3-a]pyridin-3(2H)-one], the inhibition at 1 µM turned out to be 34.7%.
The same measure, in the same setting: the figure for `O=c1n(CCOc2nccc(Oc3ccc(Cl)cc3)n2)nc2ccc(-c3ccc(OC(F)(F)F)cc3)cn12` [compound 132, 2-(2-(4-(4-chlorophenoxy)pyrimidin-2-yloxy)ethyl)-6-(4-(trifluoromethoxy)phenyl)-[1,2,4]triazolo[4,3-a]pyridin-3(2H)-one] is 11%; for `O=c1n(CCOc2ncc(F)c(N3CC(F)(F)C3)n2)nc2ccc(-c3ccc(OC(F)(F)F)cc3)cn12` [compound 133, 2-(2-(4-(3,3-difluoroazetidin-1-yl)-5-fluoropyrimidin-2-yloxy)ethyl)-6-(4-(trifluoromethoxy)phenyl)-[1,2,4]triazolo[4,3-a]pyridin-3(2H)-one] it is 20.5%.
Same read-out and setting: the figure for `Cc1noc(Cn2nc3ccc(-c4ccc(Cl)c(Cl)c4)cn3c2=O)n1` [compound 134, 6-(3,4-dichlorophenyl)-2-((3-methyl-1,2,4-oxadiazol-5-yl)methyl)-[1,2,4]triazolo[4,3-a]pyridin-3(2H)-one] is 15.5%.
On the same count and under the same terms, as for `O=c1n(CCOc2nccn3cccc23)nc2ccc(-c3ccc(OC(F)(F)F)cc3)cn12` [compound 135, 2-(2-(pyrrolo[1,2-a]pyrazin-1-yloxy)ethyl)-6-(4-(trifluoromethoxy)phenyl)-[1,2,4]triazolo[4,3-a]pyridin-3(2H)-one], the figure is 41.5%; as for `O=C1c2ccccc2C(=O)N1Cc1nc(Cn2nc3ccc(-c4ccc(OC(F)(F)F)cc4)cn3c2=O)no1` [compound 136, 2-((3-((3-oxo-6-(4-(trifluoromethoxy)phenyl)-[1,2,4]triazolo[4,3-a]pyridin-2(3H)-yl)methyl)-1,2,4-oxadiazol-5-yl)methyl)isoindoline-1,3-dione], 25.2%; as for `Cc1noc(Cn2nc3ccc(-c4ccc(C(F)(F)F)cc4)cn3c2=O)n1` [compound 137, 2-((3-methyl-1,2,4-oxadiazol-5-yl)methyl)-6-(4-(trifluoromethyl)phenyl)-[1,2,4]triazolo[4,3-a]pyridin-3(2H)-one], 28.8%.
In the case of `O=c1n(CCOc2ncc(F)cn2)nc2ccc(-c3ccc(OC(F)(F)F)cc3)cn12` [compound 138, 2-(2-(5-fluoropyrimidin-2-yloxy)ethyl)-6-(4-(trifluoromethoxy)phenyl)-[1,2,4]triazolo[4,3-a]pyridin-3(2H)-one], the inhibition at 1 µM came to 32.4%.
Still for that read-out and setting: as for `O=c1n(CCOc2cnc(Cl)nc2)nc2ccc(-c3ccc(OC(F)(F)F)cc3)cn12` [compound 139, 2-(2-(2-chloropyrimidin-5-yloxy)ethyl)-6-(4-(trifluoromethoxy)phenyl)-[1,2,4]triazolo[4,3-a]pyridin-3(2H)-one], the figure is 20.2%.
On the same count and under the same terms, the figure for `Cc1nc(Cn2nc3ccc(-c4ccc(Oc5ccc(F)cc5)cc4)cn3c2=O)no1` [compound 140, 6-(4-(4-fluorophenoxy)phenyl)-2-((5-methyl-1,2,4-oxadiazol-3-yl)methyl)-[1,2,4]triazolo[4,3-a]pyridin-3(2H)-one] is 60.6%; for `O=c1n(CCOc2nccc3ccccc23)nc2ccc(-c3ccc(OC(F)(F)F)cc3)cn12` [compound 141, 2-(2-(isoquinolin-1-yloxy)ethyl)-6-(4-(trifluoromethoxy)phenyl)-[1,2,4]triazolo[4,3-a]pyridin-3(2H)-one] it is 29.9%.
On the same count and under the same terms, the figure for `O=c1n(Cc2noc(C3CC3)n2)nc2ccc(-c3ccc(OC(F)(F)F)cc3)cn12` [compound 142, 2-((5-cyclopropyl-1,2,4-oxadiazol-3-yl)methyl)-6-(4-(trifluoromethoxy)phenyl)-[1,2,4]triazolo[4,3-a]pyridin-3(2H)-one] is 20%.
On to `O=c1[nH]nc2ccc(-c3ccc(Oc4ccc(F)cc4)cc3)cn12` [compound 143, 6-(4-(4-fluorophenoxy)phenyl)-[1,2,4]triazolo[4,3-a]pyridin-3(2H)-one], for which the inhibition at 1 µM amounted to 56.6%.
On the same count and under the same terms, the figure for `O=c1n(Cc2cc(-c3ccccn3)on2)nc2ccc(-c3ccc(OC(F)(F)F)cc3)cn12` [compound 144, 2-((5-(pyridin-2-yl)isoxazol-3-yl)methyl)-6-(4-(trifluoromethoxy)phenyl)-[1,2,4]triazolo[4,3-a]pyridin-3(2H)-one] is 19.2%; for `Cc1cccnc1-c1cc(Cn2nc3ccc(-c4ccc(OC(F)(F)F)cc4)cn3c2=O)no1` [compound 145, 2-((5-(3-methylpyridin-2-yl)isoxazol-3-yl)methyl)-6-(4-(trifluoromethoxy)phenyl)-[1,2,4]triazolo[4,3-a]pyridin-3(2H)-one] it is 37.7%; for `O=c1n(Cc2noc(CO)n2)nc2ccc(-c3ccc(Oc4ccc(F)cc4)cc3)cn12` [compound 146, 6-(4-(4-fluorophenoxy)phenyl)-2-((5-(hydroxymethyl)-1,2,4-oxadiazol-3-yl)methyl)-[1,2,4]triazolo[4,3-a]pyridin-3(2H)-one] it is 32.6%.
The same measure, in the same setting: the figure for `Cc1noc(C(C)n2nc3ccc(-c4ccc(OC(F)(F)F)cc4)cn3c2=O)n1` (stereo not drawn) [compound 147, 2-(1-(3-methyl-1,2,4-oxadiazol-5-yl)ethyl)-6-(4-(trifluoromethoxy)phenyl)-[1,2,4]triazolo[4,3-a]pyridin-3(2H)-one] is 13.4%.
On the same count and under the same terms, the figure for `Cc1nc(Cn2nc3ccc(-c4ccc(C(F)(F)F)cc4)cn3c2=O)no1` [compound 148, 2-((5-methyl-1,2,4-oxadiazol-3-yl)methyl)-6-(4-(trifluoromethyl)phenyl)-[1,2,4]triazolo[4,3-a]pyridin-3(2H)-one] is 11.6%; for `Cc1noc(Cn2nc3ccc(-c4ccc(Cl)cc4)cn3c2=O)n1` [compound 149, 6-(4-chlorophenyl)-2-((3-methyl-1,2,4-oxadiazol-5-yl)methyl)-[1,2,4]triazolo[4,3-a]pyridin-3(2H)-one] it is 26.2%.
Take `Cc1noc(Cn2nc3ccc(-c4ccc(F)c(F)c4)cn3c2=O)n1` [compound 150, 6-(3,4-difluorophenyl)-2-((3-methyl-1,2,4-oxadiazol-5-yl)methyl)-[1,2,4]triazolo[4,3-a]pyridin-3(2H)-one]: the inhibition at 1 µM amounted to 12.8%.
Same read-out and setting: the figure for `O=c1n(C/C=C/c2ccccc2)nc2ccc(-c3ccc(OC(F)(F)F)cc3)cn12` [compound 151, 2-cinnamyl-6-(4-(trifluoromethoxy)phenyl)-[1,2,4]triazolo[4,3-a]pyridin-3(2H)-one] is 16.5%; for `CC1(C)OC[C@@H](c2nc(Cn3nc4ccc(-c5ccc(OC(F)(F)F)cc5)cn4c3=O)no2)O1` [compound 152, (S)-2-((5-(2,2-dimethyl-1,3-dioxolan-4-yl)-1,2,4-oxadiazol-3-yl)methyl)-6-(4-(trifluoromethoxy)phenyl)-[1,2,4]triazolo[4,3-a]pyridin-3(2H)-one] it is 10.7%; for `COCc1noc(Cn2nc3ccc(-c4ccc(OC(F)(F)F)cc4)cn3c2=O)n1` [compound 153, 2-((3-(methoxymethyl)-1,2,4-oxadiazol-5-yl)methyl)-6-(4-(trifluoromethoxy)phenyl)-[1,2,4]triazolo[4,3-a]pyridin-3(2H)-one] it is 23.2%.
The same measure, in the same setting: the figure for `O=c1n(Cc2noc(C(F)F)n2)nc2ccc(-c3ccc(OC(F)(F)F)cc3)cn12` [compound 154, 2-((5-(difluoromethyl)-1,2,4-oxadiazol-3-yl)methyl)-6-(4-(trifluoromethoxy)phenyl)-[1,2,4]triazolo[4,3-a]pyridin-3(2H)-one] is 21%; for `Cc1noc(Cn2nc3ccc(-c4ccc(OC(F)(F)F)c(F)c4)cn3c2=O)n1` [compound 155, 6-(3-fluoro-4-(trifluoromethoxy)phenyl)-2-((3-methyl-1,2,4-oxadiazol-5-yl)methyl)-[1,2,4]triazolo[4,3-a]pyridin-3(2H)-one] it is 18.8%.
The same measure, in the same setting: as for `O=c1n(CCOc2nccc(OCCO)n2)nc2ccc(-c3ccc(OC(F)(F)F)cc3)cn12` [compound 156, 2-(2-(4-(2-hydroxyethoxy)pyrimidin-2-yloxy)ethyl)-6-(4-(trifluoromethoxy)phenyl)-[1,2,4]triazolo[4,3-a]pyridin-3(2H)-one], the figure is 6.62%; as for `O=c1n(Cc2noc(CCl)n2)nc2ccc(-c3ccc(OC(F)(F)F)cc3)cn12` [compound 157, 2-((5-(chloromethyl)-1,2,4-oxadiazol-3-yl)methyl)-6-(4-(trifluoromethoxy)phenyl)-[1,2,4]triazolo[4,3-a]pyridin-3(2H)-one], 22.7%.
Regarding `CC1(C)OC[C@H](c2nc(Cn3nc4ccc(-c5ccc(OC(F)(F)F)cc5)cn4c3=O)no2)O1` [compound 158, (R)-2-((5-(2,2-dimethyl-1,3-dioxolan-4-yl)-1,2,4-oxadiazol-3-yl)methyl)-6-(4-(trifluoromethoxy)phenyl)-[1,2,4]triazolo[4,3-a]pyridin-3(2H)-one], the inhibition at 1 µM stood at 25.3%.
The same measure, in the same setting: the figure for `CSc1ccnc(OCCn2nc3ccc(-c4ccc(OC(F)(F)F)cc4)cn3c2=O)n1` [compound 159, 2-(2-(4-(methylthio)pyrimidin-2-yloxy)ethyl)-6-(4-(trifluoromethoxy)phenyl)-[1,2,4]triazolo[4,3-a]pyridin-3(2H)-one] is 49.6%.
Regarding `N#CCOc1ccnc(OCCn2nc3ccc(-c4ccc(OC(F)(F)F)cc4)cn3c2=O)n1` [compound 160], the “Late INa 1 μM (percent block of late INa)” value (compound at 1 μM) came out at 24.6907%.

Source of the values: patent US9079901B2, “Fused heterocyclic compounds as ion channel modulators” (Gilead Sciences, Inc., priority 2010, dated 2015).
